Results on 38 molecules are retold here after US10472347B2, “Aminopyrazine compounds with A2A antagonist properties” (Merck Sharp & Dohme Corp., priority 2014, dated 2019).

The experiment has as its target T1, human A2a receptor (Homo sapiens, UniProt P29274).
T1 construct: purchased Perkin-Elmer RBHA2AM400UA; host or cells: HEK293 cells (membranes)
The experiment can be described thus: A2a competition binding assay, Scintillation Proximity technology. Conditions: membranes from HEK293 cells expressing human A2a receptor; Ki by Cheng-Prusoff equation. Put shortly: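 SPA competition: 0.5 nM tritiated pyrazolotriazolopyrimidine ligand displaced by compound at 3000 to 0.15 nM, 1 h room temperature, human A2a HEK293 membranes pretreated with adenosine deaminase, PBS/10 mM MgCl2 buffer. CGS15943 1 μM defined non-specific binding; EC50 converted to Ki via Cheng-Prusoff.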
(SPA uses beads or plates that emit light when radiolabelled molecules are held near them.)

T1 sequence (P29274 whole entry): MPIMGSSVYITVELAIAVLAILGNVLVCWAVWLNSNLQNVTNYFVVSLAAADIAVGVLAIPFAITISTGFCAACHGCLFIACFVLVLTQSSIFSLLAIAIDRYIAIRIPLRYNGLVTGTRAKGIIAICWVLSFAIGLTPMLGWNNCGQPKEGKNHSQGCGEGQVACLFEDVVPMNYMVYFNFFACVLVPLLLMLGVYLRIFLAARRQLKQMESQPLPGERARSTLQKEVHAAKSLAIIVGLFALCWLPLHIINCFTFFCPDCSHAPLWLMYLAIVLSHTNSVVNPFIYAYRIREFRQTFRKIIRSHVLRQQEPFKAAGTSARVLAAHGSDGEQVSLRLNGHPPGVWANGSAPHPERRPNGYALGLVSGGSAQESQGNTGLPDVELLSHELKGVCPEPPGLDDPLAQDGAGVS

On to `Cc1nc(C(=O)NCc2cn(CC3CC3)cn2)c(N)nc1-c1ncco1` [Ex-114, 3-amino-N-{[1-(cyclopropylmethyl)-1H-imidazol-4-yl]methyl}-6-methyl-5-(1,3-oxazol-2-yl)pyrazine-2-carboxamide], for which the Ki stood at 5.76 nM. Then `Cc1nc(C(=O)NC2CCc3ccc(Cl)nc32)c(N)nc1-c1ncco1` (single isomer, unassigned) [Ex-245B, 3-amino-N-(2-chloro-6,7-dihydro-5H-cyclopenta[b]pyridin-7-yl)-6-methyl-5-(1,3-oxazol-2-yl)pyrazine-2-carboxamide], with 4.39 nM.

`Nc1nc(-n2cccn2)c(Cl)nc1C(=O)N[C@@H]1CCc2ccccc21` [Ex-333, 3-amino-6-chloro-N-[(1R)-2,3-dihydro-1H-inden-1-yl]-5-(1H-pyrazol-1-yl)pyrazine-2-carboxamide] showed a Ki of 57.9 nM. `Cc1nc(C(=O)N[C@H]2CCC[C@H]2F)c(N)nc1-c1ncco1` [Ex-203, 3-amino-N-[(1S,2R)-2-fluorocyclopentyl]-6-methyl-5-(1,3-oxazol-2-yl)pyrazine-2-carboxamide] returned a Ki of 3.48 nM.

For the molecule `Cc1ccc(C(C)C)nc1CNC(=O)c1nc(C)c(-c2ncco2)nc1N` [Ex-89, 3-amino-6-methyl-N-{[3-methyl-6-(1-methylethyl)pyridin-2-yl]methyl}-5-(1,3-oxazol-2-yl)pyrazine-2-carboxamide], the Ki worked out at 0.746 nM. Molecule `CCc1cc(C(F)(F)F)cnc1CNC(=O)c1nc(C)c(-c2ncco2)nc1N` [Ex-196, 3-amino-N-{[3-ethyl-5-(trifluoromethyl)pyridin-2-yl]methyl}-6-methyl-5-(1,3-oxazol-2-yl)pyrazine-2-carboxamide] yielded a Ki of 2.53 nM.

With `C[C@@H](NC(=O)c1nc(Cl)c(-n2nccn2)nc1N)c1ccc2ccccc2n1` [Ex-287, 3-amino-6-chloro-N-[(1R)-1-quinolin-2-ylethyl]-5-(2H-1,2,3-triazol-2-yl)pyrazine-2-carboxamide], the affinity corresponds to a Ki of 131 nM.

The molecule `Cc1ccnnc1CNC(=O)c1nc(C)c(-c2ncco2)nc1N` [Ex-48, 3-amino-6-methyl-N-[(4-methylpyridazin-3-yl)methyl]-5-(1,3-oxazol-2-yl)pyrazine-2-carboxamide] returned a Ki of 1.01 nM. As to `Cc1ccn(-c2nc(N)c(C(=O)NCc3ccccc3C(F)(F)F)nc2Cl)n1` [Ex-338, 3-amino-6-chloro-5-(3-methyl-1H-pyrazol-1-yl)-N-[2-(trifluoromethyl)benzyl] pyrazine-2-carboxamide], the Ki worked out at 133 nM. On to `CCc1nccnc1CNC(=O)c1nc(C)c(-c2ncco2)nc1N` [Ex-187, 3-amino-N-[(3-ethylpyrazin-2-yl)methyl]-6-methyl-5-(1,3-oxazol-2-yl)pyrazine-2-carboxamide], for which the Ki worked out at 0.449 nM. The molecule `Cc1cnn(-c2nc(N)c(C(=O)NCc3ccccc3C(F)(F)F)nc2Cl)c1` [Ex-335, 3-amino-6-chloro-5-(4-methyl-1H-pyrazol-1-yl)-N-[2-(trifluoromethyl)benzyl] pyrazine-2-carboxamide] showed a Ki of 114 nM. As to `Cc1nc(C(=O)NCc2c(F)cccc2F)c(N)nc1-n1nccn1` [Ex-274, 3-amino-N-(2,6-difluorobenzyl)-6-methyl-5-(2H-1,2,3-triazol-2-yl)pyrazine-2-carboxamide], the Ki came to 2 nM. `Cc1nc(C(=O)NCc2cccnc2O)c(N)nc1-c1ncco1` [Ex-64, 3-amino-N-[(2-hydroxypyridin-3-yl)methyl]-6-methyl-5-(1,3-oxazol-2-yl)pyrazine-2-carboxamide] displayed a Ki of 1.5 nM. In turn, `Cc1nc(C(=O)NC(C)(C)c2ccncc2)c(N)nc1-c1cnco1` [Ex-261, 3-amino-6-methyl-N-(1-methyl-1-pyridin-4-ylethyl)-5-(1,3-oxazol-5-yl)pyrazine-2-carboxamide] returned a Ki of 1420 nM.

In the case of `CCC(NC(=O)c1nc(C)c(-c2ncco2)nc1N)c1ccccn1` (single isomer, unassigned) [Ex-94B, 3-amino-6-methyl-5-(1,3-oxazol-2-yl)-N-(1-pyridin-2-ylpropyl)pyrazine-2-carboxamide], the affinity, expressed as Ki, was 138 nM.

For `Cc1nc(C(=O)NCc2cncs2)c(N)nc1-c1ncco1` [Ex-17, 3-amino-6-methyl-5-(1,3-oxazol-2-yl)-N-(1,3-thiazol-5-ylmethyl)pyrazine-2-carboxamide], the Ki stood at 17.3 nM. With `Cc1nc(C(=O)NCc2n[nH]c3c2CCC3)c(N)nc1-c1ncco1` [Ex-103, 3-amino-6-methyl-5-(1,3-oxazol-2-yl)-N-(1,4,5,6-tetrahydrocyclopenta[c]pyrazol-3-ylmethyl)pyrazine-2-carboxamide], the affinity, expressed as Ki, was 0.353 nM.

Regarding `Cc1cc(C)nc(CNC(=O)c2nc(C)c(-c3ncco3)nc2N)n1` [Ex-81, 3-amino-N-[(4,6-dimethylpyrimidin-2-yl)methyl]-6-methyl-5-(1,3-oxazol-2-yl)pyrazine-2-carboxamide], the affinity, expressed as Ki, was 2.8 nM.

For `Cc1nc(C(=O)NCc2ncc(F)cc2F)c(N)nc1-c1ncco1` [Ex-62, 3-amino-N-[(3,5-difluoropyridin-2-yl)methyl]-6-methyl-5-(1,3-oxazol-2-yl)pyrazine-2-carboxamide], the affinity corresponds to a Ki of 0.622 nM. Molecule `Cc1nc(C(=O)N[C@@H]2CCC[C@H]2F)c(N)nc1-c1ncco1` [Ex-206, 3-amino-N-[(1R,2R)-2-fluorocyclopentyl]-6-methyl-5-(1,3-oxazol-2-yl)pyrazine-2-carboxamide] registered a Ki of 3.72 nM. For `COc1cccc(F)c1CNC(=O)c1nc(C)c(-c2ncco2)nc1N` [Ex-186, 3-amino-N-(2-fluoro-6-methoxybenzyl)-6-methyl-5-(1,3-oxazol-2-yl)pyrazine-2-carboxamide] the value was 0.181 nM; for `Cc1nc(C(=O)NCc2nccc3ccccc23)c(N)nc1-c1ncco1` [Ex-178, 3-amino-N-(isoquinolin-1-ylmethyl)-6-methyl-5-(1,3-oxazol-2-yl)pyrazine-2-carboxamide], 0.217 nM. In turn, `Cc1nc(C(=O)NCc2ccc(O)cc2)c(N)nc1-c1ncco1` [Ex-155, 3-amino-N-(4-hydroxybenzyl)-6-methyl-5-(1,3-oxazol-2-yl)pyrazine-2-carboxamide] returned a Ki of 13.9 nM.

Molecule `Cc1nc(C(=O)NCc2cc(F)ccc2O)c(N)nc1-c1ncco1` [Ex-129, 3-amino-N-(5-fluoro-2-hydroxybenzyl)-6-methyl-5-(1,3-oxazol-2-yl)pyrazine-2-carboxamide] registered a Ki of 0.198 nM. Consider `Cc1nc(C(=O)NCc2cnc3ccccn23)c(N)nc1-c1ncco1` [Ex-96, 3-amino-N-(imidazo-[1,2-a]pyridin-3-yl-methyl)-6-methyl-5-(1,3-oxazol-2-yl)-pyrazine-2-carboxamide], for which the Ki stood at 12.8 nM. Turning to `Cc1nc(C(=O)NCc2cccs2)c(N)nc1-c1ncco1` [Ex-132, 3-amino-6-methyl-5-(1,3-oxazol-2-yl)-N-(thiophen-2-ylmethyl)pyrazine-2-carboxamide], the Ki is 0.357 nM. Then `Cc1nc(C(=O)NCc2ncccc2C(F)(F)F)c(N)nc1-c1cnco1` [Ex-257, 3-amino-6-methyl-5-(1,3-oxazol-5-yl)-N-{[3-(trifluoromethyl)pyridin-2-yl]methyl}pyrazine-2-carboxamide], with 1.94 nM; and `Cc1cnn(-c2nc(N)c(C(=O)NCc3cccc4nccnc34)nc2Cl)c1` [Ex-357, 3-amino-6-chloro-5-(4-methyl-1H-pyrazol-1-yl)-N-(quinoxalin-5-ylmethyl)pyrazine-2-carboxamide], with 69.4 nM; and `Cc1cnccc1CNC(=O)c1nc(C)c(-c2ncco2)nc1N` [Ex-67, 3-amino-6-methyl-N-[(3-methylpyridin-4-yl)methyl]-5-(1,3-oxazol-2-yl)pyrazine-2-carboxamide], with 64.1 nM. The molecule `Cc1nc(C(=O)NCC2CC2)c(N)nc1-c1ncco1` [Ex-128, 3-amino-N-(cyclopropylmethyl)-6-methyl-5-(1,3,-oxazol-2-yl)pyrazine-2-carboxamide] had a Ki of 12.5 nM. For the molecule `Nc1nc(-n2nccn2)c(Cl)nc1C(=O)N[C@H]1C[C@@]1(F)c1ccccc1` [Ex-317, 3-amino-6-chloro-N-[(1S,2R)-2-fluoro-2-phenylcyclopropyl]-5-(2H-1,2,3-triazol-2-yl)pyrazine-2-carboxamide], the affinity, expressed as Ki, was 2200 nM. Then `Cc1nc(C(=O)NC2CCc3ccccc3C2)c(N)nc1-c1ncco1` (single isomer, unassigned) [Ex-233A, 3-amino-6-methyl-5-(1,3-oxazol-2-yl)-N-(1,2,3,4-tetrahydronaphthalen-2-yl)pyrazine-2-carboxamide], with 1.15 nM; and `Nc1nc(-n2nccn2)c(Cl)nc1C(=O)NCc1ccccc1OC(F)(F)F` [Ex-284], with 6.5 nM.

Turning to `Cc1cccnc1CNC(=O)c1nc(C)c(-c2ncc(C(F)(F)F)o2)nc1N` [Ex-384, 3-amino-6-methyl-N-[(3-methylpyridin-2-yl)methyl]-5-[5-(trifluoromethyl)-1,3-oxazol-2-yl]pyrazine-2-carboxamide], affinity was put at a Ki of 63.7 nM. The molecule `Cc1nc(C(=O)NC2CCC(F)(F)C2)c(N)nc1-c1ncco1` (centres unmarked) [Ex-115, 3-amino-N-(3,3-difluorocyclopentyl)-6-methyl-5-(1,3-oxazol-2-yl)pyrazine-2-carboxamide] had a Ki of 8.74 nM. Then `CCOCCc1ccc(C)c(CNC(=O)c2nc(C)c(-c3ncco3)nc2N)n1` [Ex-90, 3-amino-N-{[6-(2-ethoxyethyl)-3-methylpyridin-2-yl]methyl}-6-methyl-5-(1,3-oxazol-2-yl)pyrazine-2-carboxamide], with 4.95 nM. Molecule `Cc1nc(C(=O)NCc2cccc3ncn(C)c23)c(N)nc1-c1ncco1` [Ex-219, 3-amino-6-methyl-N-[(1-methyl-1H-benzimidazol-7-yl)methyl]-5-(1,3-oxazol-2-yl)pyrazine-2-carboxamide] gave a Ki of 36.5 nM. `Nc1nc(-n2nccn2)c(Cl)nc1C(=O)N[C@H](CO)c1ccccn1` [Ex-324, 3-amino-6-chloro-N-[(1S)-2-hydroxy-1-pyridin-2-ylethyl]-5-(2H-1,2,3-triazol-2-yl)pyrazine-2-carboxamide]: the inhibition constant Ki worked out at 54 nM.

A word on the Ki: it is the dissociation constant of the complex between target and ligand, obtained from inhibition or displacement. Higher therefore signals weaker binding.
